ChEMBL document CHEMBL1909046, “DrugMatrix in vitro pharmacology data”

Tests used:
[1] = target: 5-hydroxytryptamine receptor 6 (Homo sapiens, UniProt P50406); assay type: cell membranes, HeLa, Membrane; details: for Ki: read-out: Ki; on all read-outs here: in other assays of this panel Not Active means under 50% inhibition at 10 µM
[2] = DRUGMATRIX: Sigma2 radioligand binding (ligand: [3H] Ifenprodil); assay type: cell membranes, Rattus norvegicus, Wistar, Brain, Membrane; details: Not Active = under 50% inhibition at 10 µM
Endothelin-1 receptor = target: T1, Endothelin-1 receptor (Homo sapiens, UniProt P25101); assay type: cell membranes, CHO-K1, Membrane; details: cho-k1; further: in other assays of this panel Not Active means under 50% inhibition at 10 µM
T1 sequence (P25101 whole entry): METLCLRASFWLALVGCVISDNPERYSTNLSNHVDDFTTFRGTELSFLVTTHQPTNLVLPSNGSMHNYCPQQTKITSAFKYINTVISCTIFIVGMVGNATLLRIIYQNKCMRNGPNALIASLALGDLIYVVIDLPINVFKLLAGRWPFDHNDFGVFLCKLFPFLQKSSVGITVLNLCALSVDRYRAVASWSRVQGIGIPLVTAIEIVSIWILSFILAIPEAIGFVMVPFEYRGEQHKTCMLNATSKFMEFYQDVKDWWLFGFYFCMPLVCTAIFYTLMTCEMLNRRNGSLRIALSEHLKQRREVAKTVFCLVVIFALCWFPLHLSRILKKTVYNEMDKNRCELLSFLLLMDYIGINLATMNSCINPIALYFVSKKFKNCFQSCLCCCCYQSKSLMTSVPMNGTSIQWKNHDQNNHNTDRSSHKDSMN

[3] = DRUGMATRIX: Interleukin IL-1 radioligand binding (ligand: [125I] interleukin 1beta); assay type: cell membranes, Membrane; details: nih3t3; Not Active = under 50% inhibition at 10 µM
Melanocortin receptor 5 = Melanocortin receptor 5 (Homo sapiens, UniProt P33032); assay type: cell membranes, HEK293, Membrane; further: in other assays of this panel Not Active means under 50% inhibition at 10 µM
[4] = target: cGMP-specific 3',5'-cyclic phosphodiesterase (Homo sapiens, UniProt O76074); assay: DRUGMATRIX: Phosphodiesterase PDE5 enzyme inhibition (substrate: [3H]cGMP + cGMP); assay type: tissue-based; details: platelet; Not Active = under 50% inhibition at 10 µM

Melanocortin receptor 5, sequence (P33032 whole entry): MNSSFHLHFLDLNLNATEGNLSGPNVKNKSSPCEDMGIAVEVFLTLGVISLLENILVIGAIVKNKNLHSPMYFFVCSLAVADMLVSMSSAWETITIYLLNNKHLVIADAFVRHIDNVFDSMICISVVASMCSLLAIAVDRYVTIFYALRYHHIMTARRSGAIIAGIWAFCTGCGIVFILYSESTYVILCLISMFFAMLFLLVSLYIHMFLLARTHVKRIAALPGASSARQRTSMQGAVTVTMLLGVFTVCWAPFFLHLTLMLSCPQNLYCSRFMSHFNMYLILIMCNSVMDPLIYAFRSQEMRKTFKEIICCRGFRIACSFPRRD
5-hydroxytryptamine receptor 6, sequence (P50406 whole entry): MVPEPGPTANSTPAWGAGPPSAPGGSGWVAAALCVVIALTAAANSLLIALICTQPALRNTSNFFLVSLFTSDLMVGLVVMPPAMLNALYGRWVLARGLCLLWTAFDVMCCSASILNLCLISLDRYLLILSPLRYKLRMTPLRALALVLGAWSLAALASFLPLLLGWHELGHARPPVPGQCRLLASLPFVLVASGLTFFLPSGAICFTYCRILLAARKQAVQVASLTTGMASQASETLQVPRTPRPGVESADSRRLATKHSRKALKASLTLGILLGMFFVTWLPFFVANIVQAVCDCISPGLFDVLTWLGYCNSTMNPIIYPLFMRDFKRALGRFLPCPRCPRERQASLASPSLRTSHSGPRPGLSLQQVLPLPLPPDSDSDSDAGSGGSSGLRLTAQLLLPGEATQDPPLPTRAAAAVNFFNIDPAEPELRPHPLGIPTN

Row | Compound | IC50 ([1]; hela) | IC50 [2] | Ki [2] | IC50 (Endothelin-1 receptor) | IC50 [3] | Ki [3] | IC50 (Melanocortin receptor 5; hek293) | IC50 [4] | IC50 ([1]; hela, read-out: IC50) [nM] | Ki ([1]; hela) [nM] | Ki (Endothelin-1 receptor) | Ki (Melanocortin receptor 5; hek293) | Ki [4] | IC50 ([1]; read-out: IC50) [nM] | Ki [1] [nM] | IC50 (Melanocortin receptor 5; read-out: IC50) [nM] | Ki (Melanocortin receptor 5; read-out: Ki) [nM]
1 | CCS(=O)(=O)CCn1c([N+](=O)[O-])cnc1C [TINIDAZOLE] | Not Active | Not Active | Not Active | Not Active | Not Active | Not Active | Not Active | Not Active | – | – | – | – | – | – | – | – | –
2 | Nc1nc2c(c(=O)[nH]1)N(C=O)C(CNc1ccc(C(=O)N[C@@H](CCC(=O)O)C(=O)O)cc1)CN2 (stereo partly drawn) [LEUCOVORIN] | Not Active | Not Active | Not Active | Not Active | Not Active | Not Active | Not Active | Not Active | – | – | – | – | – | – | – | – | –
3 | CC(=O)O[C@H]1C[C@@H]2CC[C@@H]3[C@H](CC[C@@]4(C)[C@H]3C[C@H]([N+]3(C)CCCCC3)[C@@H]4OC(C)=O)[C@@]2(C)C[C@@H]1N1CCCCC1.[Br-] [VECURONIUM BROMIDE] | Not Active | Not Active | Not Active | Not Active | Not Active | Not Active | Not Active | Not Active | – | – | – | – | – | – | – | – | –
4 | C[C@@H](O)[C@H]1C(=O)N2C(C(=O)O)=C(S[C@@H]3CN[C@H](C(=O)N(C)C)C3)[C@H](C)[C@H]12 [MEROPENEM] | Not Active | Not Active | Not Active | Not Active | Not Active | Not Active | Not Active | Not Active | – | – | – | – | – | – | – | – | –
5 | Cc1cn([C@H]2C[C@H](N=[N+]=[N-])[C@@H](CO)O2)c(=O)[nH]c1=O [ZIDOVUDINE] | Not Active | Not Active | Not Active | Not Active | Not Active | Not Active | Not Active | Not Active | – | – | – | – | – | – | – | – | –
6 | COc1cc(N)nc2[nH]c(-c3ccc(F)cc3)c(-c3ccncc3)c12 | Not Active | Not Active | Not Active | Not Active | Not Active | Not Active | Not Active | Not Active | – | – | – | – | – | – | – | – | –
7 | CN1C2CCCC1CC(NC(=O)c1nn(C)c3ccccc13)C2 (stereo not drawn) [GRANISETRON] | Not Active | – | – | Not Active | – | – | Not Active | Not Active | – | – | – | – | – | – | – | – | –
8 | THIMEROSAL | – | Not Active | Not Active | Not Active | Not Active | Not Active | Not Active | Not Active | 5940 | 2760 | Not Active | Not Active | Not Active | – | – | – | –
9 | C[C@]12CC[C@H]3[C@@H](CCC4=CC(=O)CC[C@@]43C)[C@@H]1CC[C@@H]2O [TESTOSTERONE] | Not Active | Not Active | Not Active | Not Active | Not Active | Not Active | Not Active | Not Active | – | – | – | – | – | – | – | – | –
10 | CNS(=O)(=O)Cc1ccc2[nH]cc(CCN(C)C)c2c1 | Not Active | Not Active | Not Active | Not Active | Not Active | Not Active | Not Active | Not Active | – | – | – | – | – | – | – | – | –
11 | CO[C@H]1C[C@@H]2CC[C@@H](C)[C@@](O)(O2)C(=O)C(=O)N2CCCC[C@H]2C(=O)O[C@H]([C@H](C)C[C@@H]2CC[C@@H](O)[C@H](OC)C2)CC(=O)[C@H](C)/C=C(\C)[C@@H](O)[C@@H](OC)C(=O)[C@H](C)C[C@H](C)/C=C/C=C/C=C/1C [SIROLIMUS] | Not Active | Not Active | Not Active | Not Active | Not Active | Not Active | Not Active | Not Active | – | – | – | – | – | – | – | – | –
12 | CC(C)OC(=O)C(C)(C)Oc1ccc(C(=O)c2ccc(Cl)cc2)cc1 [FENOFIBRATE] | Not Active | – | – | Not Active | – | – | Not Active | Not Active | – | – | – | – | – | – | – | – | –
13 | CN(CCOc1ccc(CC2SC(=O)NC2=O)cc1)c1ccccn1 (stereo not drawn) [ROSIGLITAZONE] | Not Active | Not Active | Not Active | Not Active | Not Active | Not Active | Not Active | Not Active | – | – | – | – | – | – | – | – | –
14 | C=C(C)[C@H]1Cc2c(ccc3c2O[C@@H]2COc4cc(OC)c(OC)cc4[C@@H]2C3=O)O1 [ROTENONE] | – | Not Active | Not Active | Not Active | Not Active | Not Active | Not Active | Not Active | – | – | – | – | – | 870 | 404 | – | –
15 | Nc1ccc(S(=O)(=O)Nc2nccs2)cc1 [SULFATHIAZOLE] | Not Active | Not Active | Not Active | Not Active | Not Active | Not Active | Not Active | Not Active | – | – | – | – | – | – | – | – | –
16 | OCCN1CCN(CCCN2c3ccccc3Sc3ccc(C(F)(F)F)cc32)CC1 [FLUPHENAZINE] | – | – | – | Not Active | – | – | – | Not Active | – | – | – | – | – | 52 | 24 | 9520 | 8930
17 | COc1ccc(CN2CCNCC2)c(OC)c1OC [TRIMETAZIDINE] | Not Active | Not Active | Not Active | Not Active | Not Active | Not Active | Not Active | Not Active | – | – | – | – | – | – | – | – | –
18 | CC[C@@H](CO)NC(=O)[C@@H]1C=C2c3cccc4c3c(cn4C)C[C@H]2N(C)C1 [METHYSERGIDE] | – | – | – | Not Active | – | – | Not Active | Not Active | – | – | – | – | – | 162 | 75 | – | –
19 | COc1cc(C(=O)NS(=O)(=O)c2ccccc2C)ccc1Cc1cn(C)c2ccc(NC(=O)OC3CCCC3)cc12 [ZAFIRLUKAST] | Not Active | Not Active | Not Active | Not Active | Not Active | Not Active | Not Active | Not Active | – | – | – | – | – | – | – | – | –
20 | CCCc1nn(C)c2c(=O)[nH]c(-c3cc(S(=O)(=O)N4CCN(C)CC4)ccc3OCC)nc12 | Not Active | Not Active | Not Active | Not Active | Not Active | Not Active | Not Active | – | – | – | – | – | – | – | – | – | –
21 | CN[C@@H]1[C@H](O)[C@H](NC)[C@H]2O[C@@]3(O)C(=O)C[C@@H](C)O[C@H]3O[C@@H]2[C@H]1O [SPECTINOMYCIN] | Not Active | Not Active | Not Active | Not Active | Not Active | Not Active | Not Active | Not Active | – | – | – | – | – | – | – | – | –
22 | CC(=O)Nc1nnc(S(N)(=O)=O)s1 [ACETAZOLAMIDE] | Not Active | – | – | Not Active | – | – | Not Active | Not Active | – | – | – | – | – | – | – | – | –
23 | CCN(CC)CC#CCOC(=O)C(O)(c1ccccc1)C1CCCCC1 (stereo not drawn) [OXYBUTYNIN] | Not Active | – | – | Not Active | – | – | Not Active | Not Active | – | – | – | – | – | – | – | – | –
24 | CC(C)(C)NC[C@H](O)COc1nsnc1N1CCOCC1 [TIMOLOL] | Not Active | Not Active | Not Active | Not Active | Not Active | Not Active | Not Active | Not Active | – | – | – | – | – | – | – | – | –
25 | O=c1[nH]c2ccccc2n1CCCN1CCC(n2c(=O)[nH]c3cc(Cl)ccc32)CC1 [DOMPERIDONE] | Not Active | – | – | Not Active | – | – | Not Active | Not Active | – | – | – | – | – | – | – | – | –
26 | O=c1n(CCCN2CCN(c3cccc(Cl)c3)CC2)nc2ccccn12 [TRAZODONE] | Not Active | – | – | Not Active | – | – | Not Active | Not Active | – | – | – | – | – | – | – | – | –
